This note sets out measurements from patent US20200022995A1, “Novel Immunodulating Small Molecules” (AyuVis Research, Inc., priority 2018, published 2020).

In one data set the target is TLR4 (Homo sapiens, UniProt O00206). The experiment in a line: TLR4 inhibitory and activating activity in THP-1 cells. Set-up: endogenous in cells; host or cells: THP-1 monocytes, PMA-stimulated. The data set is classed as cell-based.
For data set [1], the system named is HUVECs. The experiment in a line: Anti-angiogenic activity, VEGF induced tube formation in HUVECs. The data set is classed as cell-based, human. Conditions: VEGF 100 ng/mL. On the procedure:
Selected TLR2/4 antagonist compounds 2, 6, 7, 8, 14, 17 and 32 were evaluated for anti-angiogenic activity using the Tube Formation kit (Cat #3470-096-K). VEGF (100 ng/mL) was used as positive control. These compounds have potential applications in diseases associated with pathological angiogenesis such as solid tumor, […], diabetic retinopathy as well as AMD.

The test system of another data set is hPBMC. The experiment in a line: Cytotoxicity in hPBMC (MTT). It counts as cell-based, human. Conditions: 0.1, 1.0, 10, 100 and 1000 μM, 24 h. The procedure: The cells were treated with compounds and incubated for 24 h. Cell viability was assessed using MTT cell proliferation kit (Promega). All the compounds were not toxic to hPMBC (FIG. 12).
In data set [2] the test system is HUVECs. The experiment in a line: Cytotoxicity in HUVECs (MTT). It counts as cell-based, human. Conditions: 100 μM, 24 h. The procedure: Selected TLR2/4 antagonist compounds 2, 6, 7, 8, 14, 17 and 32 were evaluated for cytotoxicity in HUVECs at 100 μM concentration. The cells were treated with compounds and incubated for 24 h. Cell viability was assessed using MTT cell proliferation kit (Promega). All the compounds were not toxic to HUVECs (FIG. 15).

Another data set relates to neonatal pups with BPD. The experiment in a line: Hyperoxia mouse model of BPD (newborn pups). It counts as in vivo. Particulars: for lung injury in neonatal pups with BPD: mouse model of BPD; for TLR4 inhibition in an in vivo model system: neonatal pups with BPD; for lung architecture: saline IV and nanosuspension IN. An excerpt:
Neonatal mice and humans undergo similar stages of lung development but differ with respect to the duration of each stage and its temporal relationship to gestational age. The lungs of the mouse born at term are in the saccular stage and are surfactant sufficient; this can be considered somewhat akin to a human preterm neonate in the same stage of lung development that has been exposed to a full complement of antenatal steroids (which is known to enhance surfactant production). In terms of mimicking the human condition, the most successful hyperoxia models are those that limit exposure to hyperoxia to the saccular stage of pulmonary development. The mouse BPD model involves exposing newborn mice (postnatal day 1 or PN1) to 100% oxygen till PN4 followed by recovery in room air (RA) for another 10 days.
After the recovery period, their lungs were harvested and processed for quantitative PCR, western blotting, histopathology and ELISA.
Each of the compounds 3, 8 or 32 encapsulated in PLGA nanoparticles referred as 3NP, 8NP and 32NP was instilled intranasally (IN) as nanosuspension to newborn pups on PN2 and PN4 at different doses (FIG. 28). After the recovery period, their lungs were harvested and processed for quantitative PCR, western blotting and histopathology and ELISA.
BPD is characterized by large simplified alveoli, inflammation, increased cell death, decreased cell proliferation, dysmorphic capillary configuration, and variable interstitial cellularity and/or fibroproliferation. […] This is determined by measuring the alveolar chord length, septal thickness and radial alveolar count (RAC). In BPD, the alveolar area increases which is characterized by increase in the diameter of the alveolar sacs, the septa become thickened (thus interfering in gaseous exchange) and the RAC, a parameter used to assess the complexity of terminal respiratory unit by pulmonologists, decreases as a result of arrested lung development.

Data set [3] has as its system P. aeruginosa (ATCC-10145 GFP) infected skin wounds. The experiment in a line: Murine skin wound infection with P. aeruginosa. It counts as in vivo, C57BL/6 mice. The procedure: Five groups of C57BL/6 mice (8-10 weeks old, n=4) were wounded on the dorsal surface. 25 ul containing 10^6 CFU/mL P. aeruginosa in a PBS suspension were pipetted onto the wound and allowed to absorb for at least 3 min. […] Subsequently and for the next 13 days, infected wounds were treated each alternate day with colistin, or with test compounds.

The subject of data set [4] is normal lung epithelial cells (AT-1). Conditions: 1 mM and 2 mM, 48 h. On the procedure: Compounds 8, 17, 29 and 35 were tested for cytotoxicity in normal lung epithelial cells (AT-1) at concentrations of 1 mM and 2 mM. The cells were treated with compounds and incubated for 48 h. Cell viability was assessed using tryptan blue live/dead assay.
The subject of a further data set is THP-1 cells. The experiment in a line: Monocyte differentiation, phagocytosis and intracellular killing of Pseudomonas aeruginosa in THP-1 cells. The data set is classed as cell-based, human. The source says:
Two of these compounds 8 and 32 stimulated monocyte differentiation into macrophages, increased phagocytosis of Pseudomonas aeruginosa (FIG. 18) and increased intracellular killing of bacteria (FIG. 19). These compounds have potential to be used as vaccine adjuvants and in combination with existing antibiotic for prophylactic treatment such as in cystic fibrosis patients.

Sequence of TLR4 (O00206 24-839): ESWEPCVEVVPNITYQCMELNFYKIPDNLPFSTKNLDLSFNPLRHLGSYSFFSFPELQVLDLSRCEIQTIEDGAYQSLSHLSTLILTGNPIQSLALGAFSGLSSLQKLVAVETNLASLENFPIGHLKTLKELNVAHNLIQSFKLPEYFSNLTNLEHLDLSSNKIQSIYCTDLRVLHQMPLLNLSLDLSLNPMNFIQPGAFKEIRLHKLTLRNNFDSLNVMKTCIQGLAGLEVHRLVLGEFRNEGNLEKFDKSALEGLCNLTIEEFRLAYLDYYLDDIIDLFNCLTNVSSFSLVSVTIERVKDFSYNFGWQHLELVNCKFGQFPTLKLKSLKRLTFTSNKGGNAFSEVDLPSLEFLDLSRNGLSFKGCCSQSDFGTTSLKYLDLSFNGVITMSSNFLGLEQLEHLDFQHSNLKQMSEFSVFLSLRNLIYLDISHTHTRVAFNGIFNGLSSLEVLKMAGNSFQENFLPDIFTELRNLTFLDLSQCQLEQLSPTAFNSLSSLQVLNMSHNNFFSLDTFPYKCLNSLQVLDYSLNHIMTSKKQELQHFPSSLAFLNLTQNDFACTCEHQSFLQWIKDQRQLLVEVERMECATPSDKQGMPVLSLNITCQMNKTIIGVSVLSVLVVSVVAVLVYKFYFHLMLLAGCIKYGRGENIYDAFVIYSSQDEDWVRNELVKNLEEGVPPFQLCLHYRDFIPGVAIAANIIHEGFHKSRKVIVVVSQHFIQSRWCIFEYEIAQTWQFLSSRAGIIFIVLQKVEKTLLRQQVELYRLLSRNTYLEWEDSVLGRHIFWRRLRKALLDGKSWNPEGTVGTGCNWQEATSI

In the case of `CC(=O)NC1C(Oc2ccc3nonc3c2)OC(CO)C(O)C1O` (stereo in doubt) [Compound 17, N-((2S,3R,4S,5S,6R)-2-(benzo[c][1,2,5]oxadiazol-5-yloxy)-4,5-dihydroxy-6-(hydroxymethyl)tetrahydro-2H-pyran-3-yl)acetamide], the “TLR2/4 antagonist or TLR4 agonist activity as shown in Table-1” value on TLR4 is reported as “TLR4 agonists”. The “VEGF induced tube formation” value in the data set with HUVECs [1] is “significantly deceased”. In the data set with hPBMC, the “cytotoxicity in hPBMC” value is reported as “not toxic”. Besides, the “cytotoxicity in HUVECs” value in the data set on HUVECs [2] is recorded as “not toxic”.

Turning to `CC(=O)N[C@H]1[C@H](Oc2ccc(C#N)cc2)O[C@H](CO)[C@@H](O)[C@@H]1O` [Compound 14, p-Cyanophenyl 2-acetamido-2-deoxy-β-D-glucopyranoside], the “VEGF induced tube formation” value with HUVECs [1] was “significantly deceased”. Also, the “cytotoxicity in hPBMC” value in the data set with hPBMC is “not toxic”. Moreover, the “cytotoxicity in HUVECs” value in the data set with HUVECs [2] is “not toxic”.

On to `CC(=O)NC1[C@H](Oc2ccc(N3CCN(C(C)=O)CC3)cc2)O[C@H](CO)[C@@H](O)[C@@H]1O` (single isomer, unassigned) [Compound 28], for which, at TLR4, the “TLR2/4 antagonist or TLR4 agonist activity as shown in Table-1” value is listed as “TLR4 agonists”.

`CC(=O)N[C@H]1[C@H](Oc2ccc(NC(=O)c3ccc(O[C@@H]4O[C@H](CO)[C@@H](O)[C@H](O)[C@H]4NC(C)=O)cc3)cc2)O[C@H](CO)[C@@H](O)[C@@H]1O` [Compound 7]: the “VEGF induced tube formation” value with HUVECs [1] was “significantly deceased”. Besides, the “cytotoxicity in hPBMC” value in the data set with hPBMC is reported as “not toxic”. Moreover, the “cytotoxicity in HUVECs” value with HUVECs [2] is reported as “not toxic”.

For `CC(=O)NC1[C@H](Oc2ccc3c(C)cc(=O)oc3c2)O[C@H](CO)[C@@H](O)[C@@H]1O` (single isomer, unassigned) [Compound 29], the “TLR2/4 antagonist or TLR4 agonist activity as shown in Table-1” value on TLR4 is recorded as “TLR4 agonists”.

`CC(=O)N[C@@H]1[C@@H](O)[C@H](O)[C@@H](CO)O[C@H]1NC(=O)c1ccc(O[C@@H]2O[C@H](CO)[C@@H](O)[C@H](O)[C@H]2NC(C)=O)cc1` [Compound 3]: in the data set with neonatal pups with BPD, the “lung injury in neonatal pups with BPD” value was “prevent lung injury”, the “TLR4 inhibition in an in vivo model system” value is given as “inhibit TLR4” and the lung architecture result is listed as “restored”.

For `CC(=O)N[C@H]1[C@H](Oc2ccc(C(=O)Nc3ccc(O[C@@H]4O[C@H](COC(C)=O)[C@@H](OC(C)=O)[C@H](OC(C)=O)[C@H]4NC(C)=O)cc3)cc2)O[C@H](CO)[C@@H](O)[C@@H]1O` [Compound 6], the “VEGF induced tube formation” value in the data set with HUVECs [1] is listed as “significantly deceased”. The “cytotoxicity in HUVECs” value in the data set on HUVECs [2] was “not toxic”.

On to `CC(=O)N[C@H]1[C@H](Oc2ccc3c(C)cc(=O)oc3c2)O[C@H](COS(=O)(=O)O)[C@@H](O)[C@@H]1O` [Compound 30], for which the “TLR2/4 antagonist or TLR4 agonist activity as shown in Table-1” value on TLR4 was “TLR4 agonists”.

Turning to `COc1ccc(OC2OC(CO)C(O)C(O)[C@@H]2NC(C)=O)cc1` (stereo partly shown) [Compound 38], the “TLR2/4 antagonist or TLR4 agonist activity as shown in Table-1” value at TLR4 was “TLR4 agonists”.

Take `CC(=O)N[C@@H]1C(Oc2ccccc2O)OC(CO)C(O)C1O` (stereo partly shown) [Compound 40]: the “TLR2/4 antagonist or TLR4 agonist activity as shown in Table-1” value on TLR4 was “TLR4 agonists”.

`CC(=O)N[C@@H]1C(Oc2ccc(Cl)cc2)OC(CO)C(O)C1O` (stereo partly shown) [Compound 39]: on TLR4, the “TLR2/4 antagonist or TLR4 agonist activity as shown in Table-1” value is given as “TLR4 agonists”.

Regarding `CC(=O)NC1[C@H](Oc2cccc3sc(NC(=O)C(C)(C)C)nc23)O[C@H](CO)[C@@H](O)[C@@H]1O` (single isomer, unassigned) [Compound 23], the “TLR2/4 antagonist or TLR4 agonist activity as shown in Table-1” value at TLR4 is “TLR4 agonists”.

Consider colistin [reference compound], for which, in data set [3] (25 μl Colistin 4 μg/ml or compound 100 μg/ml, each alternate day), the “wound closure at day 13” value is listed as “complete closure”. Also, the “re-epithelialization and granulation tissue versus controls” value in data set [3] (H&E histology, day 13 post-injury) is given as “significantly enhanced”.

For the compound `CC(=O)N[C@@H]1[C@@H](OC(C)=O)[C@H](OC(C)=O)[C@@H](COC(C)=O)O[C@H]1NC(=O)c1ccc(O[C@@H]2O[C@H](CO)[C@@H](O)[C@H](O)[C@H]2NC(C)=O)cc1` [Compound 2], in the data set with HUVECs [1], the “VEGF induced tube formation” value was “significantly deceased”. In addition, the “cytotoxicity in hPBMC” value with hPBMC is “not toxic”. Also, the “cytotoxicity in HUVECs” value in the data set with HUVECs [2] is given as “not toxic”.

As to `CC(=O)O[C@H]1C(=O)[C@@]2(C)[C@H]([C@H](OC(=O)c3ccccc3)[C@]3(O)C[C@H](OC(=O)[C@H](O)[C@@H](NC(=O)c4ccccc4)c4ccccc4)C(C)=C1C3(C)C)[C@]1(OC(C)=O)CO[C@@H]1C[C@@H]2O` [Taxol], in data set [4], the “cytotoxicity in normal lung epithelial cells (AT-1)” value is given as “toxic”.

For the compound `CC(=O)NC1[C@H](Oc2ccc(B3OC(C)(C)C(C)(C)O3)cc2)O[C@H](CO)[C@@H](O)[C@@H]1O` (single isomer, unassigned) [Compound 32, p-Pinacoloneboronatephenyl 2-acetamido-2-deoxy-β-D-glucopyranoside], in the data set with THP-1 cells, the “monocyte differentiation into macrophages” value is recorded as “stimulated”. Further, in the data set on THP-1 cells (Pseudomonas aeruginosa, THP-1 cells), the “intracellular killing of bacteria” value was “increased”. The “phagocytosis of Pseudomonas aeruginosa” value in the data set with THP-1 cells (THP-1 cells) was “increased”. Moreover, the “VEGF induced tube formation” value in the data set on HUVECs [1] was “significantly deceased”. Besides, in the data set on neonatal pups with BPD, the “lung injury in neonatal pups with BPD” value was “prevent lung injury”, the “TLR4 inhibition in an in vivo model system” value was “inhibit TLR4” and the lung architecture result is reported as “restored”. Further, the “cytotoxicity in hPBMC” value in the data set with hPBMC is reported as “not toxic”. Moreover, the “cytotoxicity in HUVECs” value in the data set on HUVECs [2] is listed as “not toxic”.
